Values of other authors in article PMC9851200, “Multiparameter phenotypic screening for endogenous TFEB and TFE3 translocation identifies novel chemical series modulating lysosome function” (Autophagy, 2022).

Legend:
Parameters in all cases: method as in original PKIS2 published data
[1] = molecular target: kinases (KINOMEscan panel) (Homo sapiens, UniProt Q8NI60); conditions: COQ8A; Published KINOMEscan; ref original PKIS2 published data; cited from earlier work
[2] = molecular target: kinases (KINOMEscan panel) (Homo sapiens, UniProt P21860); conditions: ERBB3; Published KINOMEscan; ref original PKIS2 published data; cited from earlier work
[3] = molecular target: kinases (KINOMEscan panel) (Homo sapiens, UniProt Q9Y2H9); conditions: MAST1; Published KINOMEscan; ref original PKIS2 published data; cited from earlier work
[4] = molecular target: kinases (KINOMEscan panel) (Homo sapiens, UniProt Q16816); conditions: PHKG1; Published KINOMEscan; ref original PKIS2 published data; cited from earlier work
[5] = molecular target: kinases (KINOMEscan panel) (Homo sapiens, UniProt Q00532); conditions: CDKL1; Published KINOMEscan; ref original PKIS2 published data; cited from earlier work
[6] = molecular target: T1, kinases (KINOMEscan panel) (Homo sapiens, UniProt P21709); conditions: EPHA1; Published KINOMEscan; ref original PKIS2 published data; cited from earlier work
T1 sequence (P21709 26-976): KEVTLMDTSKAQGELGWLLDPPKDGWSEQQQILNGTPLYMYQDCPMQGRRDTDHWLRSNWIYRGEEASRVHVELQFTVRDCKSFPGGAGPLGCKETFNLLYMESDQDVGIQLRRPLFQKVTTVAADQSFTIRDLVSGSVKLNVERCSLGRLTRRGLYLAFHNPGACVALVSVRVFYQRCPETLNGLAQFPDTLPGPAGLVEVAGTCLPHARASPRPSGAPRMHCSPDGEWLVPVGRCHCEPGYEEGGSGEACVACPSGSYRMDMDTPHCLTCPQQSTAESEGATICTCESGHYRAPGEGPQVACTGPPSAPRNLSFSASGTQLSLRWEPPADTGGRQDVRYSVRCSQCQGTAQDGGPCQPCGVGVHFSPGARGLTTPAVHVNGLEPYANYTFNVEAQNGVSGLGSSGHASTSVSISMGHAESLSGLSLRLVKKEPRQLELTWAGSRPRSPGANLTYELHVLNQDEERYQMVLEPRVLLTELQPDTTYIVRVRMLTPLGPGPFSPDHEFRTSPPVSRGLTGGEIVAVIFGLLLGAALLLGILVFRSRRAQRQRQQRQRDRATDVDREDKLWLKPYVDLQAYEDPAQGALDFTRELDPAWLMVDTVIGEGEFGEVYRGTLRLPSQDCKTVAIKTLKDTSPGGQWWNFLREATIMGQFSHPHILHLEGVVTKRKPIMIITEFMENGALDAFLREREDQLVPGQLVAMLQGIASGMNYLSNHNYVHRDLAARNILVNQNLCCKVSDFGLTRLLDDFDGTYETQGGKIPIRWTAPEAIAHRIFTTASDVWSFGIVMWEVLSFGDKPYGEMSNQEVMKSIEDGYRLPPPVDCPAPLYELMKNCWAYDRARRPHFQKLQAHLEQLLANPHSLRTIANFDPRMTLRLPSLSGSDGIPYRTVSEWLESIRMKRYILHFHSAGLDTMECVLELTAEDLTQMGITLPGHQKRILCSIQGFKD

[7] = molecular target: T2, kinases (KINOMEscan panel) (Homo sapiens, UniProt O14936); conditions: kinase CASK; Published KINOMEscan; ref original PKIS2 published data; cited from earlier work
T2 sequence (O14936 1-926): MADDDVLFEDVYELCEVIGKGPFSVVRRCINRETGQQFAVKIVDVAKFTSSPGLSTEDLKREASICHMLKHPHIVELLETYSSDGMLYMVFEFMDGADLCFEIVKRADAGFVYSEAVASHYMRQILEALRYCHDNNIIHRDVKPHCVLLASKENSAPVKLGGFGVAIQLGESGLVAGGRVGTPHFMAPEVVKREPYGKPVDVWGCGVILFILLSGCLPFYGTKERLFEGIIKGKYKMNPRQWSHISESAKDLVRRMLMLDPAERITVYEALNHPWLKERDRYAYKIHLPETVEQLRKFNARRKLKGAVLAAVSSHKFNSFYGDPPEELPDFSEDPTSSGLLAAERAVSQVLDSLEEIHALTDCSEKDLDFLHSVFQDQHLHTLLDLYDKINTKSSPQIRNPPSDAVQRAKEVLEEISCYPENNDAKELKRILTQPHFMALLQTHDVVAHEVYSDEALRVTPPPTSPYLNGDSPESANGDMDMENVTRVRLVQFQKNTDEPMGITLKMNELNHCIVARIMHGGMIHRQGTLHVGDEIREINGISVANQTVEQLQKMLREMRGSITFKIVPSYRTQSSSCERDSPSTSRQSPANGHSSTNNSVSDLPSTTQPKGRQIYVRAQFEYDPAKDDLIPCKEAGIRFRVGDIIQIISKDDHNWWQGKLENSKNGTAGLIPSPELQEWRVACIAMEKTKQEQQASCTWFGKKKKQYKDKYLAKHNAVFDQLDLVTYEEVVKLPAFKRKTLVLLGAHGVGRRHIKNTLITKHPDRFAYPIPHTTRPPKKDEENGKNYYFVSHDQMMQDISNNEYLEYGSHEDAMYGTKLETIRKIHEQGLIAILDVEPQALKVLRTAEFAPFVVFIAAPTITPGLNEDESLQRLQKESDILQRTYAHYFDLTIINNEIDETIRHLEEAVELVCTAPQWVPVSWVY

[8] = molecular target: kinases (KINOMEscan panel) (Homo sapiens, UniProt P12931); conditions: SRC; Published KINOMEscan; ref original PKIS2 published data; cited from earlier work
Chain of kinases (KINOMEscan panel) (Homo sapiens, UniProt P12931) (P12931 whole entry): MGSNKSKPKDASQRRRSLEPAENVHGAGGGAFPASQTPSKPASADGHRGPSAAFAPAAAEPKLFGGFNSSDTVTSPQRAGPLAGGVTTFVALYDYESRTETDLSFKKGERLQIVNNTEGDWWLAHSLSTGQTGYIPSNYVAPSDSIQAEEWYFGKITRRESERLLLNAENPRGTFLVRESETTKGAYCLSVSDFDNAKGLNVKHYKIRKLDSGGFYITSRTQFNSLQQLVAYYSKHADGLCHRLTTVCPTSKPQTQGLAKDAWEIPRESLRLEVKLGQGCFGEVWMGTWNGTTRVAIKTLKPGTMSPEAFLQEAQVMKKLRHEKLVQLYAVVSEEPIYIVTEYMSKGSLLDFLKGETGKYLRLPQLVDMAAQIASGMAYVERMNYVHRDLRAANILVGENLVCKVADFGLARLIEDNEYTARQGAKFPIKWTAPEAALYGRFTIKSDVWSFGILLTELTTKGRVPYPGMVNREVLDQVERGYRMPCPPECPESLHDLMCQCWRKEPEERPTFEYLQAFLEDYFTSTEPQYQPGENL

Chain of kinases (KINOMEscan panel) (Homo sapiens, UniProt Q9Y2H9) (Q9Y2H9 whole entry): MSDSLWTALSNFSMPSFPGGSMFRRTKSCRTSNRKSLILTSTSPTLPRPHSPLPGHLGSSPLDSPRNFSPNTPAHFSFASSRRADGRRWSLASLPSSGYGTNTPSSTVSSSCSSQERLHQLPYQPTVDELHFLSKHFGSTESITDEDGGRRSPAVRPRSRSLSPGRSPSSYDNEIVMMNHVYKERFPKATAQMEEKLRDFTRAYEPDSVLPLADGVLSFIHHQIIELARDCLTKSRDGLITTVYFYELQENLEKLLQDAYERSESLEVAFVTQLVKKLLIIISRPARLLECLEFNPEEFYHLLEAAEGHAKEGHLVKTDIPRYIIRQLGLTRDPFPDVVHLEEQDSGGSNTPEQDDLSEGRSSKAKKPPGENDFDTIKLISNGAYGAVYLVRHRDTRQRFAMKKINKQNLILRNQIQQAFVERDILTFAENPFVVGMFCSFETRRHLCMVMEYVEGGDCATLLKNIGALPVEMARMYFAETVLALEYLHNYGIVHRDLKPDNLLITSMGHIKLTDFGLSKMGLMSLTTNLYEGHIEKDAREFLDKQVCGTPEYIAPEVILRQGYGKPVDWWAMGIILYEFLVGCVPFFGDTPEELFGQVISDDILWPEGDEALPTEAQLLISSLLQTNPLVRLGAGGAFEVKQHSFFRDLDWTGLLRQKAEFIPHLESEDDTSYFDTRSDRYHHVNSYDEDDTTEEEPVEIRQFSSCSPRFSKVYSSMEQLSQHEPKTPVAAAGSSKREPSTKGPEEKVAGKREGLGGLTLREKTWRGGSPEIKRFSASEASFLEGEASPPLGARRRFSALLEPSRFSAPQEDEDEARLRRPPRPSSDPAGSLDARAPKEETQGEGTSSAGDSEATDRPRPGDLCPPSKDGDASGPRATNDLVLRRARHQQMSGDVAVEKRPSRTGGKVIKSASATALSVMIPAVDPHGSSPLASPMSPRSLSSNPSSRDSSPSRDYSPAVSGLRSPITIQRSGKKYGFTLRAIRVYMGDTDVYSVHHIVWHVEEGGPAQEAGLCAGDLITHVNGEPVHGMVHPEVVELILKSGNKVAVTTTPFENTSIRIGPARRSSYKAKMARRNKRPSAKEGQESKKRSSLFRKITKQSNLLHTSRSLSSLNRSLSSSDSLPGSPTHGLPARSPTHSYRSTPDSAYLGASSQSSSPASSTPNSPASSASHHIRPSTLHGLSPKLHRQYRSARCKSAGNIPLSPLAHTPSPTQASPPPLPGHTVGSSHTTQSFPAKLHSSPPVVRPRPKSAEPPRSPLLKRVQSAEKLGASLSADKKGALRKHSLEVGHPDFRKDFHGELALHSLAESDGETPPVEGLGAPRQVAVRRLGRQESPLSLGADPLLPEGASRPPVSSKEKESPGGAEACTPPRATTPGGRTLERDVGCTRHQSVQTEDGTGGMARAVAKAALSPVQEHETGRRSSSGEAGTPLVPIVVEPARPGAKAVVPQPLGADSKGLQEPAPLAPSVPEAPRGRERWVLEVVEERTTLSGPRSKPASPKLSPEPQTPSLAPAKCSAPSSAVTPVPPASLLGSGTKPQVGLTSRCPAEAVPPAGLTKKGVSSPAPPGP
Chain of kinases (KINOMEscan panel) (Homo sapiens, UniProt P21860) (P21860 20-1342): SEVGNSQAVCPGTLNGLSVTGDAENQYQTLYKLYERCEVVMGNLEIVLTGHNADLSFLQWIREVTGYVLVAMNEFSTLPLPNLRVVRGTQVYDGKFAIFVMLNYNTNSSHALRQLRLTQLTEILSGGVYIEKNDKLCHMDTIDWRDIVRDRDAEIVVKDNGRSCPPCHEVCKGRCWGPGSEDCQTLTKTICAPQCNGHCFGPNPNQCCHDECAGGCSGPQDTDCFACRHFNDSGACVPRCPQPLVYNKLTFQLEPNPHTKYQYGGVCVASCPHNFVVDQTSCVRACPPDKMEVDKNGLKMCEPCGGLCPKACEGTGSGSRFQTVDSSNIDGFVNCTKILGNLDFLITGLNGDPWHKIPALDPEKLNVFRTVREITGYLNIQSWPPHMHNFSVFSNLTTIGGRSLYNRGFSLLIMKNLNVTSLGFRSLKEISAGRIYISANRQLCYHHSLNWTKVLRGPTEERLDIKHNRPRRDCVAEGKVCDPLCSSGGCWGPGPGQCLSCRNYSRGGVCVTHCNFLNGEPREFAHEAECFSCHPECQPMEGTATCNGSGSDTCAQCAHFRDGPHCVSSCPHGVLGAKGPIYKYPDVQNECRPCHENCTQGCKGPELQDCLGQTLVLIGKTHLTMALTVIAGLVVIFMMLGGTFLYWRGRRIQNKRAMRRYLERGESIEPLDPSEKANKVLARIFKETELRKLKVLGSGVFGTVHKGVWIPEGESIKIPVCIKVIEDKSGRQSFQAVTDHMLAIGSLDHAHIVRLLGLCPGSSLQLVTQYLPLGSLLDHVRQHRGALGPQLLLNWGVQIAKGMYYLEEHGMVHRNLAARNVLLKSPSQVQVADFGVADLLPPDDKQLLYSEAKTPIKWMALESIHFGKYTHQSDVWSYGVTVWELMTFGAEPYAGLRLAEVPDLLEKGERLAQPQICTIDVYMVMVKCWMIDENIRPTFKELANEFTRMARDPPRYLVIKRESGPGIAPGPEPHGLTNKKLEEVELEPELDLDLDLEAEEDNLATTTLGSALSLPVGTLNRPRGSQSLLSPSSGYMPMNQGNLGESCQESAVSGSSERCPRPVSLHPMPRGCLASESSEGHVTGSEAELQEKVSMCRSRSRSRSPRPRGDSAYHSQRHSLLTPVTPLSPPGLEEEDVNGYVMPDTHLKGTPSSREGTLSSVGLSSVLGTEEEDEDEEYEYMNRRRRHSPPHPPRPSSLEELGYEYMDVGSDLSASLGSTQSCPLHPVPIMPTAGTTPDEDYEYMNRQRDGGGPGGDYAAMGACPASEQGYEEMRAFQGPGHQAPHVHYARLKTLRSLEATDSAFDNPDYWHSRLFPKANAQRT
Chain of kinases (KINOMEscan panel) (Homo sapiens, UniProt Q8NI60) (Q8NI60 163-647): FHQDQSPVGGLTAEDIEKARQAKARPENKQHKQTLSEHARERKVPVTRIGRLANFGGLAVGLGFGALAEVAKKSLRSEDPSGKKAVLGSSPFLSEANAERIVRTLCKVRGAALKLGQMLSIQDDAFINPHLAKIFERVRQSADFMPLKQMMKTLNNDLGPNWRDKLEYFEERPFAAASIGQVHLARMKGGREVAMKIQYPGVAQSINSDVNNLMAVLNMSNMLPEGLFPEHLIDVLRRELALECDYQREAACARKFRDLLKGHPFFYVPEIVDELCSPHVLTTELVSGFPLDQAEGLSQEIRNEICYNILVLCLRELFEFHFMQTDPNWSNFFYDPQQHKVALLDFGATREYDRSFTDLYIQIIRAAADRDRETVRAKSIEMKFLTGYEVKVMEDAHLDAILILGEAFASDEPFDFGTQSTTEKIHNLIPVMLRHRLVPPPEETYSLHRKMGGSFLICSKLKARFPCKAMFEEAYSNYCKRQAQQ
Chain of kinases (KINOMEscan panel) (Homo sapiens, UniProt Q00532) (Q00532 whole entry): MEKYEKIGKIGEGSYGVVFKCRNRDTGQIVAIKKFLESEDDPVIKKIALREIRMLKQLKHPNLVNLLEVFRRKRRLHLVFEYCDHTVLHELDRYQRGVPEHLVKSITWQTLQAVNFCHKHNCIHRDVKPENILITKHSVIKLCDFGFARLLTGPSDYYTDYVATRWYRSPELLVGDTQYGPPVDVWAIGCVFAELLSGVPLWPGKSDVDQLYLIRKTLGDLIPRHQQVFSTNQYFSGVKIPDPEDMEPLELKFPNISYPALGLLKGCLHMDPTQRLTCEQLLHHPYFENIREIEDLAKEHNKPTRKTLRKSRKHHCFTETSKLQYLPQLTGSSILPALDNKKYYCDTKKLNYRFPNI
Chain of kinases (KINOMEscan panel) (Homo sapiens, UniProt Q16816) (Q16816 whole entry): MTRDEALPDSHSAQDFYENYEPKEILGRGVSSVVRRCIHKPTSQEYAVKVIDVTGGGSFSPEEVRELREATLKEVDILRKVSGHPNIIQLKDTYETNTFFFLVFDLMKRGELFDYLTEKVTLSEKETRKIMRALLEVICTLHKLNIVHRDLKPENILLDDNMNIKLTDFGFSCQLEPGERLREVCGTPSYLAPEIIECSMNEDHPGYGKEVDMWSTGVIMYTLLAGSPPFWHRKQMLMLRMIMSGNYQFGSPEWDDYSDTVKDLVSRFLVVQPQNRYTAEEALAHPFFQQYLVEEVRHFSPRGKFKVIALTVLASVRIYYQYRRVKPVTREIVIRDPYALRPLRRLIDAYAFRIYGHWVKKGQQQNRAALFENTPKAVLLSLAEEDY

In the case of `Cc1cccc(-c2nc(Nc3ccncc3)c3ccccc3n2)n1` [NK215], the “KINOMEscan COQ8A” value [1] is given as 27, the “KINOMEscan ERBB3” value [2] is given as 43 and the “KINOMEscan MAST1” value [3] is given as 50. The “KINOMEscan PHKG1” value [4] was 47, the “KINOMEscan CDKL1” value [5] was 47 and the “KINOMEscan EPHA1” value [6] was 23. For the same compound, the “KINOMEscan CASK” value [7] was 0 and the “KINOMEscan SRC” value [8] was 20.
